Measurements from the NIST ThermoML archive (doi:10.1016/j.jct.2016.07.008).

Assay: xn = mol fraction of the nth substance listed
Conditions: Liquid, Vibrating wire viscometry

CC(C)CC(C)(C)C [2,2,4-trimethylpentane] + CCCCO
viscosity [mPa·s]
Conditions | 293.15 K | 313.15 K | 333.15 K | 353.15 K
100 kPa, x2 = 0.3002 | 0.651 | 0.4938 | 0.3855 | 0.3085
100 kPa, x2 = 0.5003 | 0.8986 | 0.6427 | 0.4739 | 0.3658
100 kPa, x2 = 0.8 | 1.777 | 1.151 | 0.7766 | 0.5523
1000 kPa, x2 = 0.3002 | 0.6579 | 0.4951 | 0.3922 | 0.3131
1000 kPa, x2 = 0.5003 | 0.9064 | 0.6458 | 0.4756 | 0.3715
1000 kPa, x2 = 0.8 | 1.805 | 1.161 | 0.7891 | 0.5621
5000 kPa, x2 = 0.3002 | 0.6912 | 0.5303 | 0.4188 | 0.3362
5000 kPa, x2 = 0.5003 | 0.9556 | 0.6742 | 0.5003 | 0.3955
5000 kPa, x2 = 0.8 | 1.837 | 1.216 | 0.8182 | 0.5811
10000 kPa, x2 = 0.3002 | 0.7318 | 0.5681 | 0.4439 | 0.3574
10000 kPa, x2 = 0.5003 | 0.9979 | 0.7086 | 0.5334 | 0.4195
10000 kPa, x2 = 0.8 | 1.949 | 1.279 | 0.868 | 0.6183
20000 kPa, x2 = 0.3002 | 0.8168 | 0.6344 | 0.4973 | 0.3982
20000 kPa, x2 = 0.5003 | 1.14 | 0.8024 | 0.5894 | 0.4654
20000 kPa, x2 = 0.8 | 2.161 | 1.402 | 0.9602 | 0.6708
30000 kPa, x2 = 0.3002 | 0.9098 | 0.7073 | 0.552 | 0.4475
30000 kPa, x2 = 0.5003 | 1.274 | 0.8924 | 0.6494 | 0.5151
30000 kPa, x2 = 0.8 | 2.353 | 1.54 | 1.04 | 0.7334
40000 kPa, x2 = 0.3002 | 1.004 | 0.7728 | 0.6073 | 0.491
40000 kPa, x2 = 0.5003 | 1.415 | 0.9864 | 0.7134 | 0.5714
40000 kPa, x2 = 0.8 | 2.578 | 1.674 | 1.132 | 0.793
50000 kPa, x2 = 0.3002 | 1.108 | 0.8419 | 0.6677 | 0.5403
50000 kPa, x2 = 0.5003 | 1.562 | 1.084 | 0.7814 | 0.6195
50000 kPa, x2 = 0.8 | 2.826 | 1.825 | 1.232 | 0.8609
60000 kPa, x2 = 0.3002 | 1.215 | 0.9375 | 0.7297 | 0.592
60000 kPa, x2 = 0.5003 | 1.739 | 1.186 | 0.8534 | 0.679
60000 kPa, x2 = 0.8 | 3.038 | 1.972 | 1.328 | 0.9278
70000 kPa, x2 = 0.3002 | 1.324 | 1.005 | 0.7944 | 0.6322
70000 kPa, x2 = 0.5003 | 1.895 | 1.292 | 0.9294 | 0.7319
70000 kPa, x2 = 0.8 | 3.308 | 2.114 | 1.419 | 0.9984
80000 kPa, x2 = 0.3002 | 1.433 | 1.081 | 0.857 | 0.6788
80000 kPa, x2 = 0.5003 | 2.055 | 1.402 | 1.009 | 0.7953
80000 kPa, x2 = 0.8 | 3.537 | 2.283 | 1.531 | 1.069
100000 kPa, x2 = 0.3002 | 1.679 | 1.235 | 0.9892 | 0.7915
100000 kPa, x2 = 0.5003 | 2.387 | 1.634 | 1.181 | 0.9151
100000 kPa, x2 = 0.8 | 4.066 | 2.619 | 1.735 | 1.203
120000 kPa, x2 = 0.3002 | 1.942 | 1.413 | 1.133 | 0.8951
120000 kPa, x2 = 0.5003 | 2.735 | 1.882 | 1.369 | 1.026
120000 kPa, x2 = 0.8 | 4.653 | 2.954 | 1.973 | 1.365
140000 kPa, x2 = 0.3002 | 2.211 | 1.587 | 1.279 | 1.007
140000 kPa, x2 = 0.5003 | 3.099 | 2.146 | 1.573 | 1.14
140000 kPa, x2 = 0.8 | 5.322 | 3.328 | 2.212 | 1.526
